The values below come from patent publication US8486945B2, “Heterocyclic inhibitors of an Hh-signal cascade, medicinal compositions based thereon and methods for treating diseases caused by the aberrant activity of an Hh-signal system” (priority 2007, dated 2013).

The subject of one data set is Hh-signalling cascade. The data set is described as follows: Inhibition of SHh-induced alkaline phosphatase in C3H10T1/2 cells (Hh-signalling cascade inhibition). It counts as cell-based. The conditions noted are these: Mus musculus, C3H 10T1/2, half maximal inhibition of SHh (0.3 μg/ml) stimulation of cell alkaline phosphatase. In short, it runs like this:
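C3H10T1/2 cells preincubated 30 min with compound (screen at 10 μM; IC50 from triplicate dilution series), then stimulated with 0.3 μg/ml recombinant SHh for 3 days at 37 °C. Alkaline phosphatase measured by CSPD luminescence in 0.2% Triton-X100 lysates; IC50 = half-maximal inhibition of SHh-induced activity.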

What is called IC50 is the concentration at which inhibition is half-maximal. As usually defined, the melting point is the temperature, or range, at which the solid turns liquid. Take `Cc1nn(CC(=O)N2CCN(c3cccc(Cl)c3)CC2)c(=O)c2nn(-c3ccccc3)c(C)c12` [I-1002, 2-phenyl-3,4-dimethyl-6-{2-[4-(3-chlorophenyl)piperazin-1-yl]-2-oxoethyl}-2,6-dihydro-7H-pyrazolo[3,4-d]pyridazin-7-one]: the melting point is 257 to 259 °C. This compound showed an IC50 in the data set on Hh-signalling cascade of less than 0.5 µM.

Turning to `Cc1nn(CC(=O)N2CCN(c3ccccc3)CC2)c(=O)c2nn(-c3ccccc3)c(C)c12` [I-1003, 2-Phenyl-3,4-dimethyl-6-{2-[4-phenylpiperazin-1-yl]-2-oxoethyl}-2,6-dihydro-7H-pyrazolo[3,4-c]pyridazin-7-one], the melting point was in the range of 252 to 254 °C. For the same compound, in the data set on Hh-signalling cascade, the IC50 is less than 0.5 µM.

`Cc1cccc(N2CCN(C(=O)Cn3nc(C)c4c(C)n(-c5ccccc5)nc4c3=O)CC2)c1C` [I-1004, 2-Phenyl-3,4-dimethyl-6-{2-[4-(2,3-dimethylphenyl)piperazin-1-yl]-2-oxoethyl}-2,6-dihydro-7H-pyrazolo[3,4-d]pyridazin-7-one] showed a melting point of 249 to 251 °C. In the data set on Hh-signalling cascade, this compound came in with an IC50 of less than 0.5 µM.

Regarding `Cc1ccc(C)c(N2CCN(C(=O)Cn3nc(C)c4c(C)n(-c5ccccc5)nc4c3=O)CC2)c1` [I-1005, 2-Phenyl-3,4-dimethyl-6-{2-[4-(2,5-dimethylphenyl)piperazin-1-yl]-2-oxoethyl}-2,6-dihydro-7H-pyrazolo[3,4-d]pyridazin-7-one], the melting point lay in the range of 232 to 234 °C. The same compound registered an IC50 in the data set on Hh-signalling cascade of less than 0.5 µM.

`Cc1nn(CC(=O)N2CCN(c3ccc(F)cc3)CC2)c(=O)c2nn(-c3ccccc3)c(C)c12` [I-1006, 2-Phenyl-3,4-dimethyl-6-{2-[4-(4-fluorophenyl)piperazin-1-yl]-2-oxoethyl}-2,6-dihydro-7H-pyrazolo[3,4-d]pyridazin-7-one] displayed a melting point of 257 to 259 °C. In the data set with Hh-signalling cascade, this compound had an IC50 of less than 0.5 µM.

On to `Cc1ccc(NC(=O)c2ccc3c(c2)CCCN3S(=O)(=O)c2ccc(Cl)cc2)cc1C` [VII-1017, 1-(4-Chlorophenylsulfonyl)-1,2,3,4-tetrahydroquinoline-6-carboxylic acid (3,4-dimethylphenyl)amide], for which the IC50 with Hh-signalling cascade is less than 0.5 µM.

`Cc1ccc(NC(=O)c2ccc3c(c2)CCCN3S(=O)(=O)c2ccc(Br)cc2)cc1` [VII-1020, 1-(4-Bromophenylsulfonyl)-1,2,3,4-tetrahydroquinoline-6-carboxylic acid p-tolylamide] displayed an IC50 in the data set on Hh-signalling cascade of less than 5 µM.

`CCS(=O)(=O)N1CCCc2cc(C(=O)Nc3ccccc3F)ccc21` [VII-1025, 1-Ethylsulfonyl-1,2,3,4-tetrahydroquinoline-6-carboxylic acid (2-fluorophenyl)amide] gave an IC50 with Hh-signalling cascade of less than 5 µM.

For the compound `CN1CCc2c(sc(NC(=O)C3CC3)c2-c2nc3ccccc3s2)C1` [VIII-1003, Cyclopropanecarboxylic acid (3-benzo[d]thiazol-2-yl-6-methyl-4,5,6,7-tetrahydrothieno[2,3-c]pyridin-2-yl)amide], the IC50 with Hh-signalling cascade was less than 5 µM.

In turn, `CC(=O)N1CCc2c(sc(NC(=O)C3CCCCC3)c2-c2nc3ccccc3s2)C1` [VIII-1016, Cyclohexanecarboxylic acid (6-acetyl-3-benzo[d]thiazol-2-yl-4,5,6,7-tetrahydrothieno[2,3-c]pyridin-2-yl)amide] showed an IC50 in the data set with Hh-signalling cascade of less than 5 µM.

With `CC(=O)N1CCc2c(sc(NC(=O)Cc3ccccc3)c2-c2nc3ccccc3s2)C1` [VIII-1017, N-(6-Acetyl-3-benzo[d]thiazol-2-yl-4,5,6,7-tetrahydrothieno[2,3-c]pyridin-2-yl)-2-phenylacetamide], the IC50 in the data set with Hh-signalling cascade was less than 50 µM.

As to `COC(=O)c1ccc(C(=O)Nc2sc3c(c2-c2nc4ccccc4s2)CCN(C(C)C)C3)cc1` [VIII-1025], in the data set on Hh-signalling cascade, the IC50 is less than 50 µM.

In the data set with Hh-signalling cascade, `CN1CCc2c(sc(NC(=O)c3cccc(C(F)(F)F)c3)c2-c2nc3ccccc3s2)C1` [VIII-1026, N-(3-(Benzo[d]thiazol-2-yl)-6-methyl-4,5,6,7-tetrahydrothieno[2,3-c]pyridin-2-yl)-3-trifluoromethylbenzamide] yielded an IC50 of less than 50 µM.
